In US20250346584A1, “NOVEL KAPPA OPIOID LIGANDS” (The Scripps Research Institute, priority 2012, published 2025):

Molecular target: kappa opioid receptor (OPRK1) (Homo sapiens (Human), UniProt P41145)
Experiment: OPRK1 antagonist assay (b-arrestin-2-TEV / b-lactamase reporter cell line, EC80 U-50488 challenge)
Assay type: cell-based
Conditions: read-out: IC50 nM (% inhib if other than 50%); antagonist mode vs EC80 U-50488; NA = not active at concentrations up to 10 μM

kappa opioid receptor (OPRK1), sequence (P41145 whole entry): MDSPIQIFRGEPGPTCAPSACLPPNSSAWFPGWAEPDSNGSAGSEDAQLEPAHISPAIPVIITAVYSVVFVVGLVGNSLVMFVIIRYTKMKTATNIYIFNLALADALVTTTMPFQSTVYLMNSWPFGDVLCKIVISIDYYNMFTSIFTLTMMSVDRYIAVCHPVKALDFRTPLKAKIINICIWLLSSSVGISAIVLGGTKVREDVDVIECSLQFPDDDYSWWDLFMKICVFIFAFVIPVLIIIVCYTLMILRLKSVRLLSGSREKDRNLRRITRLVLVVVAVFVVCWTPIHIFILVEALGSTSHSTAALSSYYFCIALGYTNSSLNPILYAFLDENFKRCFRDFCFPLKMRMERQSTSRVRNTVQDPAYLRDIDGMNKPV

Row | SMILES | IC50
1 | Cc1ccc2nc(N3CCC(NCC4CCCO4)CC3)c(-c3nc(C)no3)cc2c1 (centres unmarked) [compound 262] | 60 nM
2 | COC(=O)c1cc(-c2ccsc2)cnc1N1CCC(NC2CCCCC2)CC1 [compound 32] | 5300 nM
3 | CO[C@@H]1CN(c2nc3ccc(F)cc3cc2-c2nc(C)no2)CC[C@@H]1NC1CCCCC1 [compound 331] | 27 nM
4 | COC(=O)c1cc(Br)cnc1N1CCC(NC2CCCCC2)C(C)(C)C1 (centres unmarked) [compound 63] | 234 nM
5 | Cc1nc(-c2cc3cc(C)c(F)cc3nc2N2CCC(N[C@H]3CCCC[C@@H]3O)CC2)no1 [compound 506] | 48 nM
6 | COC(=O)c1cc(Br)cnc1N1CCC(NC2CCCCCC2)C(C(=O)OC)C1 (centres unmarked) [compound 118] | 661 nM
7 | Cc1cnc(N2CCC(NC3CCCCC3)C(C)C2)c(-c2nc(C)no2)c1 (centres unmarked) [compound 194] | 180 nM
8 | COC(=O)c1cc(C)cnc1N1CC[C@@H](NC2CCCCC2)[C@H](O)C1 [compound 128] | 35 nM
9 | COC(=O)c1cc2ccccc2nc1N1CCC(NC2CCCCC2)C(OC)C1 (centres unmarked) [compound 158] | 431 nM
10 | COC(=O)c1cc(Br)cnc1N1CCC(NC2CCOCC2)CC1 [compound 13] | 621 nM
11 | COC1CN(c2ncc(C)cc2-c2ncco2)CCC1NC1CCCCC1 (centres unmarked) [C70] | 17000 nM
12 | COC(=O)c1cc(Br)cnc1N1CCC(NC2CCCCCC2)C(CO)C1 (centres unmarked) [compound 74] | 58 nM
13 | COC(=O)c1cc(Br)cnc1N1CC(O)C(NC2CCCCC2)C1 (centres unmarked) [compound 48] | 459 nM
14 | Cc1ccc2nc(N3CCC(Nc4ncccn4)CC3)c(-c3nc(C)no3)cc2c1 [C83] | 47000 nM
15 | COC(=O)c1cccnc1N1CCC(NC2CCOCC2)C(O)C1 (centres unmarked) [compound 56] | 7000 nM
16 | COC(=O)c1cc(Br)cnc1N1CCC(NC2CCCCCC2)C(C(=O)OC)C1 (centres unmarked) [compound 115] | 1700 nM
17 | COC1CN(c2ncc(C)cc2-c2nc(C)no2)CCC1NC1CCCCC1 (centres unmarked) [compound 179] | 253 nM
18 | Cc1cnc(N2CCC(NC3CCCCC3)C(CO)C2)c(C#N)c1 (centres unmarked) [C68] | > 20000 nM
19 | Cc1cc(-c2nc(C)no2)c(N2CCC(NC3CCOCC3)CC2)nn1 [compound 272] | 8700 nM
20 | Cc1noc(-c2cc3ccccc3nc2N2CCC(NC3CCOCC3)C(CO)C2)n1 (centres unmarked) [compound 198] | 98 nM
21 | COC(=O)c1cc(Br)cnc1N1CCC(NC2CCCCC2)C(OC(C)=O)C1 (centres unmarked) [C49] | 17000 nM

Further molecules by falling IC50, results first:

Row | IC50 | SMILES
22 | 33 nM | COC1CN(c2nc3ccccc3cc2-c2nc(C)no2)CCC1NC1CCCCC1 (centres unmarked) [compound 292]
23 | 33 nM | Cc1noc(-c2cc3ccccc3nc2N2CCC(NC3CCCCC3C)C(CO)C2)n1 (centres unmarked) [compound 206]
24 | 23 nM | Cc1noc(-c2cc3ccc(F)cc3nc2N2CCC(NC3CCOCC3)CC2)n1 [compound 528]
25 | 21 nM | COC1CN(c2nc3cc(C)ccc3cc2-c2nc(C)no2)CCC1NC1CCCCC1 (centres unmarked) [compound 228]
26 | 20 nM | Cc1noc(-c2cc3ccccc3nc2N2CCC(NC3CCOC3)CC2)n1 (centres unmarked) [compound 236]
27 | 20 nM | Cc1noc(-c2cc3ccc(F)cc3nc2N2CCC(NCC(C)C)CC2)n1 [compound 527]
28 | 19 nM | COC1CN(c2ncc(C)cc2-c2nc(C)no2)CCC1NC1CCCCCC1 (centres unmarked) [compound 318]
29 | 17 nM | CCc1ccc2nc(N3CCC(N[C@H](C)CC)CC3)c(-c3nc(C)no3)cc2c1 [compound 525]
30 | 16 nM | CCOC(=O)c1cc(Br)cnc1N1CC[C@H](NC2CCCCC2)[C@@H](O)C1 [compound 540]
31 | 14 nM | Cc1noc(-c2cc3ccccc3nc2N2CCC(NC3CCCCCC3)C(CO)C2)n1 (centres unmarked) [compound 200]
32 | 10 nM | Cc1ccc2nc(N3CCC(NC4CCCC(O)C4)CC3)c(-c3nc(C)no3)cc2c1 (centres unmarked) [compound 255]
33 | 5 nM | Cc1noc(-c2cc3ccccc3nc2N2CCC(NC3CCCCC3)C(CO)C2)n1 (centres unmarked) [compound 186]
34 | 3.1 nM | Cc1ccc2nc(N3CCC(NCC4CCCCC4O)CC3)c(-c3nc(C)no3)cc2c1 (centres unmarked) [compound 352]
35 | 1.4 nM | CCCC(=O)Nc1cnc(N2CCC(NC3CCCCC3)CC2)c(C(=O)OC)c1 [compound 95]
